Key:
[1] = system: T cells (Jurkat T cells, MOG35-55-specific T cells); test: XTT cytotoxicity assay; assay type: cell-based, human and murine; settings: up to maximal concentration examined (20 μM, FIG. 3G)
Experimental: Aliquots of 2.5×10^4 of the cells (from Jurkat E6-1, T-cell line) were distributed onto a 96-well plate (Falcon) in the presence of various peptide concentrations and incubated for 24 h. Wells in the last two columns served as blank (medium only), and 100% survival controls (cells and medium only), respectively. After incubation, the XTT reaction solution benzene sulfonic acid hydrate and N-methyl dibenzopyrazine methyl sulfate, mixed in a proportion of 50:1, was added for 2 more hr. Optical density was read at a 450-nm wavelength in an enzyme-linked immunoabsorbent assay plate reader. LC50 (the concentration at which 50% of the cells die) was determined relative to the control, 2.5×10^4 cells in medium. All assays were performed in duplicate.
The viability of the cells was analyzed by an XTT cytotoxicity assay. The peptide was not toxic to T cells up to 20-fold more than the IC50 of the peptide, the maximal concentration examined (FIG. 3G).

[2] = system: human red blood cells (RBCs); test: Hemolysis of human red blood cells; assay type: cell-based; settings: up to 100-fold IC50, maximal concentration examined (100 μM, 1 hr)
Experimental: Fresh human red blood cells (RBCs) were rinsed two times with PBS, followed by centrifugation for 7 min at 2000 rpm and resuspension in PBS. Peptides, at various concentrations, were dissolved in PBS and added to 50 μl of the stock hemolysis of human red blood cell (hRBC) solution in PBS for a final volume of 100 μl (final erythrocyte concentration, 4% (v/v)). The resulting suspension was incubated with agitation for 60 min at 37° C. The samples were then centrifuged at 2000 rpm for 7 min. The release of hemoglobin was monitored by measuring the absorbance of the supernatant at 540 nm. Controls for zero hemolysis (blank) and 100% hemolysis consisted of hRBCs suspended in PBS and PBS with 1% Triton, respectively.
Hemolysis of red blood cells (RBCs) is often used to detect membranolytic activity of peptides. Hemolytic activity was measured by the release of hemoglobin into the media (OD 540 nm). Triton (1% v/v) served as a control for a hemolytic agent. Importantly, the peptide was not hemolytic up to 100-fold more than the IC50 of the peptide, the maximal concentration examined (FIG. 3H).

[3] = In vivo toxicity in naïve mice; design: species or system C57BL mice; settings: 50 mg/kg i.v., n=3
Experimental: First, the toxicity of the peptide was investigated by injecting naïve C57BL mice i.v. with 50 mg/kg of the peptides. […] Then, C57Bl/6J mice that were induced to develop clinical EAE by immunization with MOG35-55/CFA were given a dose of the peptide that was 100-fold less than the one examined in the toxicity assay, i.e. 10 μg per mouse (0.5 mg/kg), or PBS as a control. On day 10 post immunization, prior to the onset of clinical signs of EAE, the lymph node cells (LNCs) from each treatment group were cultured for 72 h in microtiter wells in triplicate (0.5×10^6/well) in the absence or presence of MOG35-55 (2.5 or 5 μg/ml; SEQ ID NO: 15). [H3] Thymidine was added for the last 18 h. The LNCs were analyzed ex vivo for their recall proliferative response to the immunizing MOG35-55 peptide and for secretion of pro-inflammatory cytokines.

SMILES: CC[C@H](C)[C@H](NC(=O)[C@H](CCC(N)=O)NC(=O)[C@H](CCC(=O)O)NC(=O)[C@H](CC(C)C)NC(=O)[C@H](CO)NC(=O)[C@H](CCCCN)NC(=O)[C@H](CC(N)=O)NC(=O)[C@@H](N)CO)C(=O)N[C@@H](Cc1c[nH]c2ccccc12)C(=O)N[C@@H](CC(N)=O)C(=O)N[C@@H](Cc1c[nH]cn1)C(=O)N[C@H](C(=O)N[C@H](C(=O)N[C@@H](Cc1c[nH]c2ccccc12)C(=O)N[C@@H](CCSC)C(=O)N[C@@H](CCC(=O)O)C(=O)N[C@@H](Cc1c[nH]c2ccccc12)C(=O)N[C@@H](CC(=O)O)C(N)=O)[C@@H](C)O)[C@@H](C)O [PEP 6, SNKSLEQIWNHTTWMEWD]
- toxicity to T cells (viability) [1]: not toxic
- hemolytic activity [2]: not hemolytic
- toxic effect in mice [3]: No toxic effect
